The record followed here is patent publication US20110104713A1, “PRODUCTS AND PROCESSES FOR MODULATING PEPTIDE-PEPTIDE BINDING DOMAIN INTERACTIONS” (priority 2002, published 2011).

The target in test [1] is T1, GST-BRCA1 tandem BRCT domains interaction with phosphoproteins (Homo sapiens, UniProt P38398).
T1 construct: 15 μM GST-BRCA1 BRCT domains (residues 1634-1863); made in house; host or cells: E. coli DH5a
In words: GST-BRCA1 tandem BRCT pull-down of DNA damage-induced phosphoproteins from irradiated U2OS cells. The class given is binding. The protocol:
(§1) U2OS cells were either treated with 10 Gy of ionizing radiation or mock irradiated and allowed to recover for 30-120 minutes. Cells were subsequently lysed in 50 mM Tris/HCl (pH7.6), 150 mM NaCl, 1.0% NP-40, 5 mM EDTA, 2 mM DTT, 8 μg/mL pepstatin, 8 μg/mL aprotinin, 8 μg/mL leupeptin, 2 mM Na3VO4, 10 mM NaF, 1 μM microcystin. The lysates (0.5-2 mg) were incubated with 20 μL glutathione beads containing 10-20 μg of GST-PTIP BRCT domains (residues 550-757), GST-BRCA1 BRCT domains (residues 1634-1863), or GST for 120 minutes at 4° C. Beads were washed three times with lysis buffer. Precipitated proteins were eluted in sample buffer and detected by blotting with anti-ATM/ATR substrate (pSer/pThr)Gln antibody (CELL SIGNALING TECHNOLOGY, Inc Beverly, Mass.), polyclonal anti-53BP1 (ONCOGENE […] PRODUCTS, San Diego, Calif. 92121), or monoclonal anti-HA (COVANCE Inc, Princeton, N.J.). For peptide competition experiments, GST-PTIP BRCT domains or GST-BRCA1 BRCT domains were immobilized on glutathionine beads and preincubated with 350 μM of BRCTtide-optimal, 7pT, 7T, pSQ-library, SQ-library, or pTP-library for 1 hour at 4° C. and washed three times with lysis buffer.

Test [2] relates to GST-PTIP tandem BRCT domains interaction with 53BP1. Description: GST-PTIP tandem BRCT pull-down of 53BP1 from irradiated U2OS cells. The class given is binding, human. To be noted: 25 mM caffeine prior to irradiation, U2OS. How it is done: as §1
In test [3] the target is T2, GST-BRCA1 BRCT domains (residues 1634-1863) (Homo sapiens, UniProt P38398).
T2 construct: 15 μM GST-BRCA1 BRCT domains (residues 1634-1863); made in house; host or cells: E. coli DH5a
Description: Isothermal titration calorimetry of peptides with BRCA1 tandem BRCT domains. To be noted: BRCA1; N.D.B = no detectable binding by ITC, tandem BRCT domain concentration of at least 150 μM. It is filed as binding. The source says:
(§2) For deletion mapping of the PTIP and BRCA1 BRCT phospho-binding region and for expression of MDC 1, 53BP1 and Rad9 (FIG. 17-18), fragments were generated by PCR for in vitro transcription/translation and cloned into a pcDNA3.1 expression vector (Invitrogen, San Diego, Calif.). For production of recombinant GST-PTIP BRCT domains and GSTBRCA1 BRCT domains, residues 550-757 of PTIP and residues 1634-1863 of BRCA1 were ligated into the EcoRI and NotI sites of pGEX-4T1 (Pharmacia, Peapack, N.J.) and subsequently transformed into DH5a E. Coli. Protein induction occurred at 37° C. for 4 hours or at 25° C. for 16 hours in the presence of 0.4 mM IPTG. For peptide filter blot analysis and measurements of peptide binding affinity by ITC, GSTPTIP BRCT domains (residues 550-757) and GST-BRCA1 BRCT domains (residues 1634-1863) were isolated from bacterial lysates using glutathione agarose, eluted with 40 mM glutathione, and dialyzed into 50 mM Tris/HCl (pH 8.1), 300 mM NaCl. The GFP-PTIP constructs FL (residues 1-757), !BRCT (residues 1-550), or (BRCT)2 (residues 550-757) were cloned into the EcoRI and SalI sites of the pEGFP-C2 (BD Biosciences Clontech Franklin Lakes, N.J.) expression vector.
(§3) Peptides were synthesized by solid phase technique with three C-terminal lysines to enhance solubility. The peptides were then purified by reverse phase HPLC following deprotection and confirmed by MALDI-TOF mass spectrometry. Calorimetry measurements were performed using a VP-ITC microcalorimeter (MicroCal Inc., Studio City, Calif.). Experiments involved serial 10 μL injections of peptide solutions (20 μM-150 μM) into a sample cell containing 15 μM GST-PTIP BRCT domains (residues 550-757) or 15 μM GST-BRCA1 BRCT domains (residues 1634-1863) in 50 mM Tris/HCl (pH 8.1), 300 mM NaCl. Twenty injections were performed with 240 second intervals between injections and a reference power of 25 μCal/s. Binding isotherms were plotted and analyzed using ORIGIN Software (MicroCal Inc. Studio City, Calif.).
(In general: Isothermal titration calorimetry measures the heat released or taken up as one component is titrated into another.)

Test [4] deals with T3, GST-PTIP tandem BRCT domains interaction with 53BP1 (Homo sapiens, UniProt Q6ZW49).
T3 construct: 10-20 μg of GST-PTIP BRCT domains (residues 550-757); made in house; host or cells: E. coli DH5a (GST-PTIP BRCT); 53BP1 endogenous from U2OS lysate
In words: GST-PTIP tandem BRCT pull-down of 53BP1 from irradiated U2OS cells. It is filed as binding. The conditions noted are these: 350 μM peptide or library, 1 hour at 4° C., IR treated U2OS. How it is done:
as §1

Test [5] concerns the target T4, GST-PTIP BRCT domains (residues 550-757) (Homo sapiens, UniProt Q6ZW49).
T4 construct: 15 μM GST-PTIP BRCT domains (residues 550-757); made in house; host or cells: E. coli DH5a
Description: Isothermal titration calorimetry of peptides with PTIP tandem BRCT domains. The class given is binding. The conditions noted are these: PTIP; N.D.B = no detectable binding by ITC, tandem BRCT domain concentration of at least 150 μM.
Excerpt: as §2, §3

Entries after “also recorded” stand apart in the source; their conditions may differ.

T3 sequence (Q6ZW49 862-1069): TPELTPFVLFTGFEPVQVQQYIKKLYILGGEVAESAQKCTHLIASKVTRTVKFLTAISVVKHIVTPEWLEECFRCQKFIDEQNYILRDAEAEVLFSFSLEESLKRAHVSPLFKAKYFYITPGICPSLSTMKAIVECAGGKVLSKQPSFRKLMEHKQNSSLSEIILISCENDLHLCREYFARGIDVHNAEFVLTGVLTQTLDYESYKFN
T1 sequence (P38398 1634-1863): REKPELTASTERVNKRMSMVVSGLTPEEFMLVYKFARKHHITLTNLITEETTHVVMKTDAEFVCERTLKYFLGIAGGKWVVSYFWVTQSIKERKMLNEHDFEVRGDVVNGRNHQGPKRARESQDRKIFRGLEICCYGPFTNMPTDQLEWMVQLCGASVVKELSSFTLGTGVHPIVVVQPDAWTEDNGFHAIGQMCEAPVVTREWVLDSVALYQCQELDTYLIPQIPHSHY
T4 sequence (Q6ZW49 862-1069): as the sequence (Q6ZW49 862-1069) above
T2 sequence (P38398 1634-1863): as the sequence (P38398 1634-1863) above

Take `Cn1c(=O)c2c(ncn2C)n(C)c1=O` [caffeine, reference compound]: the “effect of caffeine pre-treatment of cells on BRCA1 BRCT binding to (pSer or pThr)-Gln-containing proteins” value in test [1] (caffeine prior to γ-irradiation, U2OS) is on record as “largely eliminated”. The “effect of caffeine treatment of cells on PTIP BRCT interaction with 53BP1” value in test [2] was “disrupted the interaction; also recorded: eliminated”.

On to GAAYDITQVFPFAKKK [BRCTtide-7T], for which the “Kd (N.D.B.)” value in test [3] and in test [5] was “N.D.B” in each case. Further, in test [1] (350 μM peptide or library, U2OS lysates after 10 Gy), the “effect of pre-incubation with peptide/library on BRCA1 BRCT binding to (pSer or pThr)-Gln-containing proteins” value was “not”. Besides, the “effect of bead pre-incubation with peptide/library on PTIP BRCT interaction with 53BP1” value in test [4] is “not”; in test [4] (listed as non-phosphorylated counterpart), “not eliminated”.
